# Values quoted from earlier work, collected in patent publication US6582498B1, “Method of separating carbon dioxide from a gas mixture using a fluid dynamic instability” (Battelle Memorial Institute, priority 2001, dated 2003).
compound,measurement,setting,value
"NCCO [MEA, monoethanolamine]",LD50 (oral for rat),rat,"2,050 mg/kg"
same,LD50 (intraperitoneal for mouse),mouse,50 mg/kg
same,eye irritation (for rabbit),rabbit,0.763 milligrams
